Experimental data reported in PubChem BioAssay AID328 (DTP/NCI, 2004).
“And” between values parts separate entries of the source, which are not always exact repeats. Equal entries are not always repeated. Inconclusive results and toxic doses are left out. How the source made its calls: active means survival T/C of 150% or more; inactive means T/C below 125% in these data.

System: BDF1 mice, P388 leukemia ip, median survival T/C
Assay: NCI In Vivo Anticancer Drug Screen. Data for tumor model P388 Leukemia (intraperitoneal) in B6D2F1 (BDF1) mice
Conditions: endpoint: median survival time, higher = longer survival
Description: The antitumor activity of compounds was measured in mice bearing transplantable tumors. Survival or tumor size were measured and the results are expressed as the measurement made in the treated group (T) divided by the measurement made in the vehicle treated control group (C). The tumor model used in this assay is P388 Leukemia (intraperitoneal) in B6D2F1 (BDF1) mice

[1] = dose: 100.0 mg/kg/injection, schedule: Q04DX003 (ip), vehicle: saline with Tween-80
[2] = dose: 200.0 mg/kg/injection, schedule: Q04DX003 (ip), vehicle: saline with Tween-80
[3] = dose: 400.0 mg/kg/injection, schedule: Q04DX003 (ip), vehicle: saline with Tween-80
[4] = dose: 25.0 mg/kg/injection, schedule: Q04DX003 (ip), vehicle: saline with Tween-80
[5] = dose: 50.0 mg/kg/injection, schedule: Q04DX003 (ip), vehicle: saline with Tween-80
[6] = dose: 6.25 mg/kg/injection, schedule: Q01DX009 (ip), vehicle: saline with Tween-80
[7] = dose: 12.5 mg/kg/injection, schedule: Q01DX009 (ip), vehicle: saline with Tween-80
[8] = dose: 25.0 mg/kg/injection, schedule: Q01DX009 (ip), vehicle: saline with Tween-80
[9] = dose: 50.0 mg/kg/injection, schedule: Q01DX009 (ip), vehicle: saline
[10] = dose: 100.0 mg/kg/injection, schedule: Q01DX009 (ip), vehicle: saline
[11] = dose: 200.0 mg/kg/injection, schedule: Q01DX009 (ip), vehicle: saline
[12] = dose: 50.0 mg/kg/injection, schedule: Q01DX009 (ip), vehicle: saline with Tween-80
[13] = dose: 100.0 mg/kg/injection, schedule: Q01DX009 (ip), vehicle: saline with Tween-80
[14] = dose: 200.0 mg/kg/injection, schedule: Q01DX009 (ip), vehicle: saline with Tween-80
[15] = dose: 3.13 mg/kg/injection, schedule: Q01DX009 (ip), vehicle: saline
[16] = dose: 50.0 mg/kg/injection, schedule: Q01DX009 (ip), vehicle: Klucel (hydroxypropylcellulose) (HPC)
[17] = dose: 100.0 mg/kg/injection, schedule: Q01DX009 (ip), vehicle: Klucel (hydroxypropylcellulose) (HPC)
[18] = dose: 400.0 mg/kg/injection, schedule: Q01DX009 (ip), vehicle: saline with Tween-80
[19] = dose: 50.0 mg/kg/injection, schedule: Q04DX003 (ip), vehicle: saline
[20] = dose: 100.0 mg/kg/injection, schedule: Q04DX003 (ip), vehicle: saline

Measured: T/C

CCOC1=C(C#N)CC2(CC1)c1ccccc1-c1ccccc12
inactive: [1] 95 % of control | [2] 95 % of control | [3] 91 % of control

CC(C)=CCCC(C)=C(C#N)C#N
inactive: [4] 107 % of control | [5] 105 % of control | [1] 107 % of control

NC(=O)c1c(N)sc2c1CCCC2
inactive: [6] 86 % of control | [7] 86 % of control | [8] 95 % of control

O=C1CCS2(CCC(=O)O2)O1
inactive: [9] 98 % of control | [10] 94 % of control | [11] 98 % of control

CC(=O)c1c(-c2ccccc2)noc1C
inactive: [1] 98 % of control | [2] 90 % of control | [3] 100 % of control

O=C1c2ccccc2C(=O)N1CC(O)CCl (centres undefined)
inactive: [12] 104 % of control | [5] 100 % of control | [13] 112 % of control | [1] 104 % of control | [14] 88 % of control | [2] 108 % of control

O=C(Cn1ccnc1[N+](=O)[O-])NCc1ccccc1
inactive: [12] 99 % of control | [13] 94 % of control | [14] 100 % of control

CN1CCCC1c1cccnc1 (centres undefined)
inactive: [15] 109 % of control | dose: 6.25 mg/kg/injection, schedule: Q01DX009 (ip), vehicle: saline 109 % of control

Nc1nc(=O)n(CC(=O)c2ccco2)cc1F
inactive: [9] 109 % of control | [10] 95 % of control and 100 % of control | [11] 118 % of control

Cc1cc2no[n+]([O-])c2cc1C
inactive: [16] 109 % of control | [17] 109 % of control | dose: 200.0 mg/kg/injection, schedule: Q01DX009 (ip), vehicle: Klucel (hydroxypropylcellulose) (HPC) 109 % of control

COc1ccc(C(=O)CC(c2ccc3c(c2)OCO3)c2c(O)c3ccccc3oc2=O)cc1OC (centres undefined)
inactive: [8] 91 % of control | [12] 116 % of control | dose: 75.0 mg/kg/injection, schedule: Q01DX009 (ip), vehicle: saline with Tween-80 88 % of control | [13] 97 % of control and 123 % of control | dose: 150.0 mg/kg/injection, schedule: Q01DX009 (ip), vehicle: saline with Tween-80 101 % of control | [14] 87 % of control

C[N+](C)(CCCCOCCCC[N+](C)(C)Cc1ccc([N+](=O)[O-])cc1)Cc1ccc([N+](=O)[O-])cc1
inactive: dose: 0.19 mg/kg/injection, schedule: Q01DX009 (ip), vehicle: saline with Tween-80 100 % of control | dose: 0.37 mg/kg/injection, schedule: Q01DX009 (ip), vehicle: saline with Tween-80 104 % of control | dose: 0.75 mg/kg/injection, schedule: Q01DX009 (ip), vehicle: saline with Tween-80 108 % of control | dose: 1.5 mg/kg/injection, schedule: Q01DX009 (ip), vehicle: saline with Tween-80 96 % of control | dose: 1.5 mg/kg/injection, schedule: Q04DX003 (ip), vehicle: saline with Tween-80 109 % of control | dose: 3.0 mg/kg/injection, schedule: Q04DX003 (ip), vehicle: saline with Tween-80 104 % of control

O=Cc1c2c(c(C=O)c3c1OCO3)OCO2
inactive: dose: 100.0 mg/kg/injection, schedule: Q01DX001 (ip), vehicle: saline with Tween-80 97 % of control | dose: 200.0 mg/kg/injection, schedule: Q01DX001 (ip), vehicle: saline with Tween-80 97 % of control | dose: 400.0 mg/kg/injection, schedule: Q01DX001 (ip), vehicle: saline with Tween-80 90 % of control

COc1cccc(/C=N\NC(=O)C(C)SC(C)C(=O)N/N=C/c2cccc(OC)c2)c1 (centres undefined)
inactive: [13] 100 % of control | [14] 104 % of control | [18] 104 % of control

COC(OC)C1(O)CC(C(C)C)OC(=O)N1 (centres undefined)
inactive: [19] 97 % of control | [20] 105 % of control

COc1ccc(NC(=S)N(C)C)cc1
inactive: [13] 100 % of control | [14] 109 % of control | [18] 109 % of control

O=C(/C=C/c1c(Cl)cccc1Cl)c1ccc(Cl)cc1
inactive: [13] 86 % of control | [14] 90 % of control | [18] 104 % of control

CSc1nc(C)cc(=O)[nH]1
inactive: [6] 105 % of control | [7] 103 % of control | [8] 115 % of control | [12] 108 % of control

NC(=O)NO.NC(=O)NO.[Cl][Ni][Cl]
inactive: dose: 3.12 mg/kg/injection, schedule: Q01DX009 (ip), vehicle: saline 92 % of control

OC1CC[N-]CC1.OC1CC[N-]CC1.[Cl][Pt+2]([Cl])([Cl])[Cl]
inactive: [4] 109 % of control | [5] 102 % of control

Nc1ccc(/C=C\c2nccc3ccccc23)cc1
inactive: dose: 0.39 mg/kg/injection, schedule: Q01DX009 (ip), vehicle: saline with Tween-80 114 % of control | dose: 0.78 mg/kg/injection, schedule: Q01DX009 (ip), vehicle: saline with Tween-80 107 % of control | dose: 0.78 mg/kg/injection, schedule: Q01DX009 (ip), vehicle: saline 123 % of control | dose: 1.56 mg/kg/injection, schedule: Q01DX009 (ip), vehicle: saline 123 % of control | dose: 3.13 mg/kg/injection, schedule: Q01DX009 (ip), vehicle: saline with Tween-80 89 % of control | [15] 113 % of control

C[N+](C)(C)c1ncnc2nc[nH]c12
inactive: dose: 15.0 mg/kg/injection, schedule: Q01DX010 (ip), vehicle: saline 91 % of control and 100 % of control | dose: 30.0 mg/kg/injection, schedule: Q01DX010 (ip), vehicle: saline 100 % of control and 104 % of control | dose: 60.0 mg/kg/injection, schedule: Q01DX010 (ip), vehicle: saline 91 % of control and 100 % of control | dose: 100.0 mg/kg/injection, schedule: Q01DX001 (ip), vehicle: saline 100 % of control | dose: 120.0 mg/kg/injection, schedule: Q01DX010 (ip), vehicle: saline 91 % of control and 95 % of control | dose: 200.0 mg/kg/injection, schedule: Q01DX001 (ip), vehicle: saline 110 % of control

Nc1nc(N)c2c(n1)CCCC2
inactive: [6] 100 % of control | [7] 90 % of control | [8] 90 % of control

CN(C)[C@@H]1C(=O)C(C(=O)NCNC(CO)(CO)CO)=C(O)[C@@]2(O)C(=O)C3=C(O)c4c(O)cccc4[C@@](C)(O)[C@H]3C[C@@H]12
inactive: dose: 25.0 mg/kg/injection, schedule: Q04DX003 (ip), vehicle: saline 100 % of control | [19] 95 % of control | [20] 90 % of control | dose: 200.0 mg/kg/injection, schedule: Q04DX003 (ip), vehicle: saline 104 % of control

Clc1nc(Cl)nc(-c2cccn2-c2ccccc2)n1
inactive: dose: 25.0 mg/kg/injection, schedule: Q01DX009 (ip), vehicle: Klucel (hydroxypropylcellulose) (HPC) 100 % of control | [16] 100 % of control | [17] 104 % of control | dose: 150.0 mg/kg/injection, schedule: Q01DX009 (ip), vehicle: Klucel (hydroxypropylcellulose) (HPC) 105 % of control | dose: 225.0 mg/kg/injection, schedule: Q01DX009 (ip), vehicle: Klucel (hydroxypropylcellulose) (HPC) 95 % of control

O=C(/C=N\O)c1ccncc1
inactive: dose: 50.0 mg/kg/injection, schedule: Q04DX003 (ip), vehicle: Klucel (hydroxypropylcellulose) (HPC) 100 % of control | dose: 100.0 mg/kg/injection, schedule: Q04DX003 (ip), vehicle: Klucel (hydroxypropylcellulose) (HPC) 100 % of control

C[n+]1c(-c2ccc(Cl)cc2Cl)c2cc([N+](=O)[O-])ccc2c2ccccc21
inactive: dose: 3.12 mg/kg/injection, schedule: Q01DX009 (ip), vehicle: water 104 % of control | dose: 6.25 mg/kg/injection, schedule: Q01DX009 (ip), vehicle: water 88 % of control and 104 % of control and 112 % of control | dose: 12.5 mg/kg/injection, schedule: Q01DX009 (ip), vehicle: water 110 % of control and 119 % of control | dose: 25.0 mg/kg/injection, schedule: Q01DX009 (ip), vehicle: water 104 % of control (2×) and 112 % of control | dose: 50.0 mg/kg/injection, schedule: Q01DX009 (ip), vehicle: water 101 % of control

CN(CCOc1ccccc1O)CCOc1ccccc1O
inactive: dose: 100.0 mg/kg/injection, schedule: Q01DX001 (ip), vehicle: Klucel (hydroxypropylcellulose) (HPC) 120 % of control | dose: 200.0 mg/kg/injection, schedule: Q01DX001 (ip), vehicle: Klucel (hydroxypropylcellulose) (HPC) 110 % of control | dose: 400.0 mg/kg/injection, schedule: Q01DX001 (ip), vehicle: Klucel (hydroxypropylcellulose) (HPC) 105 % of control
